Assay results: ChEMBL document CHEMBL5620385, “Orally bioavailable styryl derivative of rohitukine-N-oxide inhibits CDK9/T1 and the growth of pancreatic cancer cells” (Eur J Med Chem, 2023)

Assays:
[1] = tested on: MIA PaCa-2; experiment: Induction of intracellular ROS generation in human MIA PaCa-2 cells incubated for 48 hrs by DCFDA dye based analysis; type: functional, cell-based
[2] = Clearance in BALB/c mouse at 30 mg/kg, po measured for 6 hrs by LC-MS/MS analysis; type: ADME, organism-based; settings: in vivo
[3] = tested on: HCT-116; experiment: Antiproliferative activity against human HCT-116 cells assessed as cell growth inhibition at 10 uM incubated for 48 hrs by MTT assay relative to control; type: functional
[4] = tested on: MIA PaCa-2; experiment: Induction of mitochondrial membrane potential loss in human MIA PaCa-2 cells incubated for 48 hrs by Rhodamine-123 dye based analysis; type: functional, cell-based
[5] = tested on: HCT-116; experiment: Antiproliferative activity against human HCT-116 cells assessed as cell growth inhibition incubated for 48 hrs by MTT assay; type: functional
[6] = C0 in BALB/c mouse at 2.5 mg/kg, iv measured for 6 hrs by LC-MS/MS analysis; type: ADME, organism-based; settings: in vivo
[7] = Clearance in BALB/c mouse at 2.5 mg/kg, iv measured for 6 hrs by LC-MS/MS analysis; type: ADME, organism-based; settings: in vivo
[8] = tested on: MIA PaCa-2; experiment: Induction of apoptosis in human MIA PaCa-2 cells assessed as apoptotic body formation incubated for 48 hrs by DAPI staining based analysis; type: functional, cell-based
[9] = Tmax in BALB/c mouse at 30 mg/kg, po measured for 6 hrs by LC-MS/MS analysis; type: ADME, organism-based; settings: in vivo
[10] = Volume of distribution in BALB/c mouse at 30 mg/kg, po measured for 6 hrs by LC-MS/MS analysis; type: ADME, organism-based; settings: in vivo
[11] = target: Cyclin-dependent kinase 7/ cyclin H (Homo sapiens) (UniProt P51946+P50613); experiment: Inhibition of CDK7/cyclin H (unknown origin) at 10 uM by ADP-Glo assay relative to control; type: protein-complex assay
[12] = AUC(0 to t) in BALB/c mouse at 2.5 mg/kg, iv measured for 6 hrs by LC-MS/MS analysis; type: ADME, organism-based; settings: in vivo
[13] = Metabolic stability in human liver microsomes assessed as compound remaining at 10 uM measured after 30 mins in presence of NADPH by HPLC analysis; type: ADME, Microsome; settings: 0.5 h
[14] = tested on: MIA PaCa-2; experiment: Antiproliferative activity against human MIA PaCa-2 cells assessed as cell growth inhibition incubated for 48 hrs by MTT assay; type: functional
[15] = target: CDK9/Cyclin K (Homo sapiens) (UniProt P50750+O75909); experiment: Inhibition of CDK9/cyclin K (unknown origin) at 10 uM by ADP-Glo assay relative to control; type: protein-complex assay
[16] = AUC(0 to infinity) in BALB/c mouse at 30 mg/kg, po measured for 6 hrs by LC-MS/MS analysis; type: ADME, organism-based; settings: in vivo
[17] = target: Cyclin-dependent kinase 7/ cyclin H (Homo sapiens, UniProt P50613); experiment: Inhibition of CDK7/cyclin H (unknown origin) by ADP-Glo assay; type: protein-complex assay
[18] = target: CDK9/cyclin T1 (Homo sapiens, UniProt P50750); experiment: Inhibition of CDK9/cyclin T1 (unknown origin) by ADP-Glo assay; type: protein-complex assay
[19] = Volume of distribution in BALB/c mouse at 2.5 mg/kg, iv measured for 6 hrs by LC-MS/MS analysis; type: ADME, organism-based; settings: in vivo
[20] = target: CDK9/Cyclin K (Homo sapiens, UniProt P50750); experiment: Inhibition of CDK9/cyclin K (unknown origin) by ADP-Glo assay; type: protein-complex assay
[21] = Metabolic stability in mouse liver microsomes assessed as compound remaining at 10 uM measured after 30 mins in presence of NADPH by HPLC analysis; type: ADME, Microsome; settings: 0.5 h
[22] = AUC(0 to t) in BALB/c mouse at 30 mg/kg, po measured for 6 hrs by LC-MS/MS analysis; type: ADME, organism-based; settings: in vivo
[23] = Cmax in BALB/c mouse at 30 mg/kg, po measured for 6 hrs by LC-MS/MS analysis; type: ADME, organism-based; settings: in vivo
[24] = Half life in BALB/c mouse at 30 mg/kg, po measured for 6 hrs by LC-MS/MS analysis; type: ADME, organism-based; settings: in vivo
[25] = Antiproliferative activity against HEK293 cells assessed as cell growth inhibition at 10 uM incubated for 48 hrs by MTT assay relative to control; type: toxicity, cell-based; settings: human
[26] = AUC(0 to infinity) in BALB/c mouse at 2.5 mg/kg, iv measured for 6 hrs by LC-MS/MS analysis; type: ADME, organism-based; settings: in vivo
[27] = tested on: MIA PaCa-2; experiment: Antiproliferative activity against human MIA PaCa-2 cells assessed as cell growth inhibition at 10 uM incubated for 48 hrs by MTT assay relative to control; type: functional
[28] = tested on: MIA PaCa-2; experiment: Induction of apoptosis in human MIA PaCa-2 cells assessed as chromatin condensation incubated for 48 hrs by DAPI staining based analysis; type: functional, cell-based
[29] = Antiproliferative activity against HEK293 cells assessed as cell growth inhibition incubated for 48 hrs by MTT assay; type: toxicity, cell-based; settings: human
[30] = Half life in BALB/c mouse at 2.5 mg/kg, iv measured for 6 hrs by LC-MS/MS analysis; type: ADME, organism-based; settings: in vivo
[31] = AUC(0 to infinity) in BALB/c mouse at 5 mg/kg, iv measured for 6 hrs by LC-MS/MS analysis; type: ADME, organism-based; settings: in vivo
[32] = Clearance in BALB/c mouse at 5 mg/kg, iv measured for 6 hrs by LC-MS/MS analysis; type: ADME, organism-based; settings: in vivo
[33] = C0 in BALB/c mouse at 5 mg/kg, iv measured for 6 hrs by LC-MS/MS analysis; type: ADME, organism-based; settings: in vivo
[34] = Metabolic stability in mouse liver microsomes assessed as drug metabolism at 10 uM measured after 30 mins in presence of NADPH by HPLC analysis; type: ADME, Microsome; settings: read-out: Drug metabolism
[35] = Metabolic stability in human liver microsomes assessed as drug metabolism at 10 uM measured after 30 mins in presence of NADPH by HPLC analysis; type: ADME, Microsome; settings: read-out: Drug metabolism
[36] = AUC(0 to t) in BALB/c mouse at 5 mg/kg, iv measured for 6 hrs by LC-MS/MS analysis; type: ADME, organism-based; settings: in vivo
[37] = Volume of distribution in BALB/c mouse at 5 mg/kg, iv measured for 6 hrs by LC-MS/MS analysis; type: ADME, organism-based; settings: in vivo
[38] = Half life in BALB/c mouse at 5 mg/kg, iv measured for 6 hrs by LC-MS/MS analysis; type: ADME, organism-based; settings: in vivo

Chain of CDK9/Cyclin K (P50750 whole entry): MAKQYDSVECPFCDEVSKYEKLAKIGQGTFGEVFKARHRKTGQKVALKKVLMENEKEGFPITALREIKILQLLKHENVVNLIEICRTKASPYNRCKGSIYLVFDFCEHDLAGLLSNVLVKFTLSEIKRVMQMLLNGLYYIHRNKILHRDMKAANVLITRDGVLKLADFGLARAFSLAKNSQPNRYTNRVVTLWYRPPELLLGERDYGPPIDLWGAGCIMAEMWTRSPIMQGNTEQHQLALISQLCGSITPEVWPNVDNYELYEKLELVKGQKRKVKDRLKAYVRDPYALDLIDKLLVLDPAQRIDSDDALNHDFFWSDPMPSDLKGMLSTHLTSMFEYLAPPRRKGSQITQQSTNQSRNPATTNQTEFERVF
Chain of CDK9/Cyclin K (O75909 whole entry, further chain): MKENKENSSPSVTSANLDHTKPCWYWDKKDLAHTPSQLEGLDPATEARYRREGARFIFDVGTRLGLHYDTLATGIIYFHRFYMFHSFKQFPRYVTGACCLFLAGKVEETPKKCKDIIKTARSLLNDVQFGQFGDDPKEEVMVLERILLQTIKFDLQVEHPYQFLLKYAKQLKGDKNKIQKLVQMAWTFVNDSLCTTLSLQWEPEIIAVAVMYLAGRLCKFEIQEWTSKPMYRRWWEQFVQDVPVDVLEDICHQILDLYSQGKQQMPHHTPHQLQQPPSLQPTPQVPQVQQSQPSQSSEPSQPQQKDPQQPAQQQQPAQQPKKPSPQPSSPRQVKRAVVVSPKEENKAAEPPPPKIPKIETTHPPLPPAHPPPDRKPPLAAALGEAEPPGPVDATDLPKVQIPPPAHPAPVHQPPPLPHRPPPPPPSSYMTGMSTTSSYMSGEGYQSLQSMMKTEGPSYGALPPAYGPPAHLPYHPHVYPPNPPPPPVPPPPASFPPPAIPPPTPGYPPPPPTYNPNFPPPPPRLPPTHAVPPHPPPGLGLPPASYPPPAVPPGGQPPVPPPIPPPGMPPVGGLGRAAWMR
Chain of Cyclin-dependent kinase 7/ cyclin H (P51946 whole entry): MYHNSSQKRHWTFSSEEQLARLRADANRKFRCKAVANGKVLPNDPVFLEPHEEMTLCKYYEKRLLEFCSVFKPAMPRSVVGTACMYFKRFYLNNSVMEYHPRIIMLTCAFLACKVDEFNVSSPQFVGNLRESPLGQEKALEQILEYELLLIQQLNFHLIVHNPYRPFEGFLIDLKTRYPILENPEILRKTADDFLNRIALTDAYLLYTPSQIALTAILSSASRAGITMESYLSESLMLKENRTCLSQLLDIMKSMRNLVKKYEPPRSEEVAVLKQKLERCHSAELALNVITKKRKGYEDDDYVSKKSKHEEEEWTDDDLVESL
Chain of Cyclin-dependent kinase 7/ cyclin H (P50613 whole entry): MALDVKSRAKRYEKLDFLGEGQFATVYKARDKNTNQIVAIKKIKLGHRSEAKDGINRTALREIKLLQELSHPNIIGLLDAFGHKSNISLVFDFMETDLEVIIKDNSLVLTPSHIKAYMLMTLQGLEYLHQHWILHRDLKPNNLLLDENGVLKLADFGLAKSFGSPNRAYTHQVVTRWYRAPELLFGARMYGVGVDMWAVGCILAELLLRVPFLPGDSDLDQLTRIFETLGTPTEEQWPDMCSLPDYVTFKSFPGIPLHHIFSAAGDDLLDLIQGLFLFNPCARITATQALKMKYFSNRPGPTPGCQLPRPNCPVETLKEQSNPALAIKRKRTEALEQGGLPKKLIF
Chain of CDK9/cyclin T1 (O60563 whole entry): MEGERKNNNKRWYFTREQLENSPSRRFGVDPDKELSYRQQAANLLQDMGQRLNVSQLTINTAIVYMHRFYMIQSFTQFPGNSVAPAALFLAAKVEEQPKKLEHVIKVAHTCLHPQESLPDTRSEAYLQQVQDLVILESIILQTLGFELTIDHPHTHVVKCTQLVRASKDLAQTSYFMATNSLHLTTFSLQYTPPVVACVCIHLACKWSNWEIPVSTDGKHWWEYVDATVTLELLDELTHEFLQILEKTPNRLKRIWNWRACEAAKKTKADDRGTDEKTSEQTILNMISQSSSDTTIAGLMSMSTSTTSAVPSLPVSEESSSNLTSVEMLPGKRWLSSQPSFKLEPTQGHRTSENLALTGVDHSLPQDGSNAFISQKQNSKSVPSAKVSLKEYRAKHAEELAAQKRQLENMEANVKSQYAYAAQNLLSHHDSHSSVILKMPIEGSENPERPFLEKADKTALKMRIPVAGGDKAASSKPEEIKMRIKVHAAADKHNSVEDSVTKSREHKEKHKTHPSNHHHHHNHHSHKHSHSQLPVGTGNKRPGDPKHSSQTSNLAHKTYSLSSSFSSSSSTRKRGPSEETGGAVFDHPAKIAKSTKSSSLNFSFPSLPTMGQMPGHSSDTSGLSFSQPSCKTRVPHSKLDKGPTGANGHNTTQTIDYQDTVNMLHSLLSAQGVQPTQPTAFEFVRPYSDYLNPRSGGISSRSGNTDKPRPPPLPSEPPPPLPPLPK
Chain of CDK9/cyclin T1 (P50750 whole entry): as the sequence (P50750 whole entry) above

CL/F [2] [mL/min/kg] | GI50 [5] [µM] | Tmax [9] [min] | Vd [10] [L/kg] | inhibition [11] [%] | GI50 [14] [µM] | inhibition [15] [%] | AUC(0-inf) [16] [ng·h/mL] | IC50 [17] [µM] | IC50 [18] [µM] | IC50 [20] [µM] | AUC(0-t) at 6 h [22] [ng·h/mL] | Cmax [23] [ng/mL] | half-life [24] [min] | Structure (SMILES) | Activity [1] | inhibition at 10 µM [3] [%] | Activity [4] | Activity [8] | inhibition at 48 h, 10 µM [25] [%] | inhibition at 10 µM [27] [%] | also measured
953 | 5.1 | 4.98 | 32.4 | 62.7 | 6.07 | 61.7 | 525 | 1.46 | 0.166 | 2.81 | 510 | 731 | 102 | C[N+]1([O-])CC[C@H](c2c(O)cc(O)c3c(=O)cc(/C=C/c4ccccc4Cl)oc23)[C@H](O)C1 (stereo not given in full) | Dose-Dependent Effect | 67 | Dose-Dependent Effect | Dose-Dependent Effect | 29.7 | 56.3 | C0 at 6 h [6]: 5720 ng/mL; clearance [7]: 120 mL/min/kg; AUC(0-t) at 6 h [12]: 341 ng·h/mL; Stability [13]: Stable; Vd [19]: 3 L/kg; Stability [21]: Stable; AUC(0-inf) [26]: 346 ng·h/mL; Activity [28]: Dose-Dependent Effect; GI50 at 48 h [29]: 90.3 µM; half-life [30]: 17.4 min
1250 | 2.53 | 30 | 17 | 28.7 | 5.53 | 41.7 | 401 | 0.54 | 0.15 | 2.28 | 400 | 817 | 9.6 | COc1cc(O)c2c(=O)cc(/C=C/c3c(F)cccc3Cl)oc2c1[C@H]1CC[N+](C)([O-])C[C@H]1O (stereo not given in full) | Dose-Dependent Effect | 25.2 | Dose-Dependent Effect | Dose-Dependent Effect | 14.9 | 24.9 | AUC(0-inf) [31]: 957 ng·h/mL; clearance [32]: 86.7 mL/min/kg; C0 at 6 h [33]: 19100 ng/mL; metabolised at 0.5 h, 10 µM [34]: 16%; metabolised at 0.5 h, 10 µM [35]: 16%; AUC(0-t) at 6 h [36]: 956 ng·h/mL; Vd [37]: 0.8 L/kg; Activity [28]: Dose-Dependent Effect; GI50 at 48 h [29]: 81.5 µM; half-life [38]: 6 min
